Values of other authors, collected in patent US20150038526A1, “FLUORINE-CONTAINING 5-[2-(PYRID-3-YL)-ETHYL]-2,3,4-TETRAHYDRO-1H-PYRIDO[4,3-B]INDOLES AS AGENTS FOR REDUCING UNCONTROLLED PROTEIN AGGREGATION” (FEDERALNOE GOSUDARSTVENNOE BUDZHETNOE UCHREZHDENIE NAUKI …, priority 2011, published 2015).

System: gamma-synuclein protein
Conditions: tissues of the nervous system of model animals

## Cc1ccc2c(c1)c1c(n2CCc2ccc(C)nc2)CCN(C)C1 [Dimebon]
  formation and/or elimination of amyloid-like inclusions formed by gamma-synuclein: modulates the molecular cellular processes of formation and/or elimination of pathological protein depositions
